Each structure is given as a SMILES string.

One assay deals with diabetic cataracts. Conditions: active ingredient of gooseberry extracts; Puppala et al. 2012; cited from earlier work.
Assay [1] concerns Raw264.7 murine macrophages. The assay is described as follows: Sorbitol accumulation in Raw264.7 murine macrophages. Conditions: FIG. 4A/5A. It counts as cell-based.
The target of a further assay is T1, AKR1A1 (Homo sapiens, UniProt P14550).
T1 sequence (P14550 1-325): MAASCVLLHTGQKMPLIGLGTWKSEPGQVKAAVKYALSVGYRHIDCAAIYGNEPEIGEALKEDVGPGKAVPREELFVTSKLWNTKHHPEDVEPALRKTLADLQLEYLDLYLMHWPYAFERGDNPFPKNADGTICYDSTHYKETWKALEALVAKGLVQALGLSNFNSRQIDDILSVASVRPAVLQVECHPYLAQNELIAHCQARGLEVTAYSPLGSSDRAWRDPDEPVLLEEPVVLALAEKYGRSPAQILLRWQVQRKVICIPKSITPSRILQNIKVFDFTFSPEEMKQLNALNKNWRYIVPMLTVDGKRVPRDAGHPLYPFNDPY
The assay is described as follows: Aldo keto reductase specificity, AKR1A1. It is filed as biochemical. Conditions: FIG. 3B; result in words.

Assay [2] deals with lenses of PAR40 transgenic mice that express human AKR1B1. As to the kind of experiment: Sorbitol accumulation in lenses of PAR40 transgenic mice cultured ex vivo. The note with it: PAR40 transgenic mice expressing human AKR1B1; hyperglycemic conditions; lenses excised and cultured ex vivo; FIG. 4B/5B. It counts as cell-based.
For a further assay, the target named is AKR1B10 (Homo sapiens, UniProt O60218). The assay is described as follows: Aldo keto reductase specificity, AKR1B10. It counts as biochemical. The note with it: FIG. 3B; result in words.
Sequence of AKR1B10 (O60218 whole entry, species assumed): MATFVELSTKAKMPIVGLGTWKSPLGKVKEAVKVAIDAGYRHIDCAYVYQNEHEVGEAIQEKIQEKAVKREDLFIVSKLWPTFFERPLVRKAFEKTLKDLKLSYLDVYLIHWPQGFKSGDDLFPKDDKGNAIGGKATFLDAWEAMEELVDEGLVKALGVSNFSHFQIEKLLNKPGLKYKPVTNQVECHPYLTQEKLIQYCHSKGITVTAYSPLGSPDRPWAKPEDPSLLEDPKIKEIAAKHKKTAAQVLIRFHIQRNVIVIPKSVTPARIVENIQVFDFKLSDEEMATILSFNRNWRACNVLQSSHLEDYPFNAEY

On to `O=C(O[C@@H]1O[C@H](CO)[C@@H](O)[C@H](O)[C@H]1O)c1cc(O)c(O)c(O)c1` [BGG, 1-O-(3,4,5-trihydroxybenzoyl)-β-D-glucopyranose], for which, in the assay with diabetic cataracts, the “efficacy in slowing the progression of diabetic cataracts” value was “efficacy in slowing the progression of diabetic cataracts”.

In the case of `O=C(N[C@@H]1O[C@H](CO)[C@@H](O)[C@H](O)[C@H]1O)c1cc(O)c(O)c(O)c1` [BGA, 1-deoxy-1-(3,4,5-trihydroxybenzamido)-β-D-glucopyranose], the sorbitol accumulation result in assay [1] and in assay [2] was “blocks sorbitol accumulation” in each case. The “specificity for AKR1B1 over AKR1A1” value at AKR1A1 is on record as “displays specificity for AKR1B1 over other aldo keto reductase enzymes”. At AKR1B10, the “specificity for AKR1B1 over AKR1B10” value is on record as “displays specificity for AKR1B1 over other aldo keto reductase enzymes”.
